Test results: patent US20040254131A1, “Method for prevention or treatment of diseases or disorders related to excessive formation of vascular tissue or blood vessels” (priority 2003, published 2004)

Assays:
[1] = tested on: hTERT-HUVEC cells; assay: Endothelial tube formation assay after liposomal transfection; format: cell-based, human; details: for mean ±SEM tube number/well, single nucleotide assay 4A / mean ±SEM tube number/well, single nucleotide assay 4b: oligonucleotide 1 μM, DOTAP/DOPE, 4 h transfection, 3 h on Matrigel; for mean ±SEM tube number/well, single nucleotide assay 4A: non-treated control 60±1.8; for mean ±SEM tube number/well, single nucleotide assay 4b: repeated set, non-treated control 58.0±2.9
Procedure: A further experiment was carried out in order to study the effect of single antisense molecules and their combinations in the prevention of endothelial cell tube formation by immortal human umbilical vein endothelial cells (hTERT-HUVECs).
Immortal human umbilical vein endothelial cells (hTERT-HUVECs) were obtained from Geron Corporation (Menlo Park, Calif., U.S.A.). hTERT-HUVECs were maintained on a gelatin-coated 100-mm dishes (Corning Costar, N.Y., U.S.A) in growth medium, composed of M199 medium (Gibco, Paisley, Scotland) supplement with 15% (v/v) heat-inactivated fetal bovine serum (Gibco BRL), 2 mM L-glutamine (Gibco BRL), 100 units/ml penicillin/streptomycin (Gibco BRL), 10 units/ml heparin (Sigma) and 20 μg/ml endothelial cell growth factor (Roche Biomolecules) at 37° C. in a humified incubator with 5% CO2 atmosphere. Experiments were performed with cells between passages 20 and 24.
The following phosphorothioate oligonucleotides were synthesized: human neuropeptide Y2-receptor mRNA antisense molecules
N-(1-(2,3-dioleoyloxy)propyl)-N,N,N-trimethyl ammonium methylsulfate (DOTAP) and 1,2-dioleoyl-3-phosphatidylethanolamine (DOPE) were purchased from Avanti Polar Lipids. Cationic liposomes composed of DOTAP/DOPE (1:1 by mol) were prepared as previously described (Ruponen et al., 2001 (43)).
hTERT-HUVECs (5×10^4 cells/well) were seeded onto gelatin-coated 48-multiwell plates (Corning Costar, N.Y., U.S.A) and incubated overnight. For transfection, the growth medium was replaced with 400 μl of transfection medium (M199 medium supplement with 2 mM L-glutamine and 100 units/ml penicillin/streptomycin). Oligonucleotides (final concentration 1 μM) and DOTAP/DOPE liposomes in sterile water were first diluted in MES-HEPES buffered saline (50 mM MES, 50 mM HEPES, 75 mM NaCl, pH 7.2) and then mixed together at a charge ratio +1. The transfection mixture was allowed to stand at room temperature for 20 min and the oligonucleotide/liposome complexes (100 μl) were added dropwise to each well.
After transfection for 4 h hTERT-HUVECs were harvested after trypsin treatment, suspended in growth medium (200 μl) and seeded in growth factor-reduced Matrigel (BD Biosciences) coated 96-well plates (Corning Costar, N.Y., U.S.A). After incubation for 3 h cells were fixed in 4% paraformaldehyde. The formation of tubular structures in each well (7 fields/well) was digitally captured using a Nicon Eclipse TE300 Inverted Microscope (Nicon, Tokyo, Japan) equipped with a Nicon F-601 digital camera (Nicon, Tokyo, Japan). Photographs were taken at 4× magnification.
The efficacy in prevention of formation of tubular structures by hTERT-HUVECs of all 5 synthesized antisense molecules were compared against each others alone and in combination. The number of tubular structures was analyzed by using Adobe Photoshop 5.5 (Adobe Systems Inc., San Jose, Calif., U.S.A) and the results were expressed as means ±SEM of three independent experiments. A set of three experiments was repeated.

[2] = tested on: rat NPY Y2 mRNA; assay: Hyperoxia/ischemia-induced retinal neovascularization (retinopathy) in newborn rats; format: in vivo; details: for retinal capillary vessel formation in fluorescein images (FIG. 3): fluorescence microscopy of flat-mounted retinas; for Mean ± SD of quantitated neovascularization (amount of retinal vessels crossed by a constant length line): newborn Sprague Dawley rats, cyclic hyperoxia 40%/80% then room air, intraperitoneal treatment, eyes collected at age 20 days
Description: The present study was undertaken to determine the impact of NPY Y2 receptor targeted intervention on neovascularization and development of retinopathy. Development of retinopathy was induced to newborn rats by cyclic hyperoxia and following relative ischemia-induced retinal neovascularization. Hyperoxemia is toxic to developing retinal vessels causing damage and hypoxia in the retina. After moving to normal air, relative hypoxia follows further promoting neovascularization of the retina.
Three groups of rat puppies were subjected for different treatments; 1) vehicle, 2) NPY Y2 receptor targeted antisense oligonucleotide sequence, and 3) scramble oligonucleotide sequence containing the same oligonucleotides as NPY Y2 receptor targeted antisense oligonucleotide sequence. The treatments were administered intraperitoneally. The retinal vessels were investigated and retinopathic changes were compared between treatment groups.
Retinopathy was assessed after injection of fluorescent-labelled dextran to the circulation. The eyes were flat-mounted on slides and the retinal vessels were visualized and investigated by fluorescence microscopy. Statistical differences were calculated between the study groups.
Study protocol was approved by the Joint Ethics Committee of Turku University. Development of retinopathy was induced to newborn rats (Sprague Dawley) by cyclic hyperoxia and following relative ischemia. Hyperoxia is toxic to developing retinal vessels causing damage and hypoxia in the retina, which induces neovascularization. After moving to normal air, relative hypoxia follows further promoting neovascularization of the retina. Hypoxia is one of the major causes of retinal neovascularization in human retinopathies also. The newborn rats were kept in a hyperoxic incubator with their mothers. Retinal neovascularization was induced simultaneously for all three groups of puppies. One treatment group consisted originally of 7 puppies, which underwent cyclic hyperoxia at the age of 3 days, continued until at the age of 14 days and remained in normal room air from the age of 14 to 17 days. The amount of oxygen inside the incubator was kept at 40% and 80% in 12 hour cycles for 10 days (days from 3 to 13).
The three groups of puppies were subjected for different treatments; 1) plain vehicle, 2) NPY Y2 receptor targeted antisense oligodeoxynucleotide sequence (5′-CCTCTGCACCTAATGGGCCC -3′ (SEQ ID NO:38), containing 20 thioate modified bases) diluted in vehicle and 3) scramble oligodeoxynucleotide sequence containing the same deoxynucleotides as NPY Y2 receptor targeted antisense oligodeoxynucleotide sequence but in a random order (5′-CCATGGTAATCCGCCGCTCC-3′ (SEQ ID NO:39), containing 20 thioate modified bases) diluted in vehicle. The treatments were administered intraperitoneally. The retinal vessels were investigated and retinopathic changes were compared between treatment groups. The used NPY Y2 receptor targeted antisense deoxynucleotide sequence was designed complementary to next 20 bases from NPY Y2 gene transcription initiation codon (ATG).
At the age of 20 days, rats were decapitated and eyes were collected. Retinopathy and retinal neovascularization was assessed after an injection of fluorescent-labelled dextran to the circulation trough heart puncture. One eye from each puppy was used for visualization of retinal vessels. The eyes were flat-mounted on slides and the retinal vessels were visualized and investigated by fluorescence microscopy. Pictures of retinas were acquired using a Leica DMR/DC100 microscope and Leica DC Wiever software.
The amount of retinal capillaries was analyzed by counting the amount of vessels crossed by a constant length line using plot profile analysis (Image-J 2.6 program). Each retina was analyzed in 3-5 representative areas and the mean values were used for further statistical analysis. Only unfolded retinal preparations were used in order to avoid artificial images of neovascularization. […]

Substance	mean ±SEM tube number/well, single nucleotide assay 4A [1] [tube number/well]	mean ±SEM tube number/well, single nucleotide assay 4b [1] [tube number/well]	retinal capillary vessel formation in fluorescein images (FIG. 3) [2]	Mean ± SD of quantitated neovascularization (amount of retinal vessels crossed by a constant length line) [2]	further results
5′-CCTCTGCACCTATTGGACCC-3′ (DNA, all phosphorothioate, methylation of C not given here; listed as Homo sapiens) [AS-1, human neuropeptide Y2-receptor mRNA antisense molecule]	44.0±5.6	54.3±10.1	–	–	–
5′-CCATGGTAATCCGCCGCTCC-3′ (CCATGGTAATCCGCCGCTCC; DNA, all phosphorothioate, methylation of C not given here; listed as Rattus sp.) [Scramble, scramble oligodeoxynucleotide, same deoxynucleotides as the Y2 antisense in random order, reference compound]	–	–	irregular and disrupted	31.12 ± 0.93	difference in retinal neovascularization versus vehicle treatment group ([2]; post hoc comparison): no difference
5′-GTTTGTGGCCCGTATTGTTCC-3′ (DNA, all phosphorothioate, methylation of C not given here; listed as Homo sapiens) [AS-2, human neuropeptide Y2-receptor mRNA antisense molecule]	70.3±11.3	75.0±7.5	–	–	–
5′-GGCCACTGTTCTTTCTGACC-3′ (DNA, all phosphorothioate, methylation of C not given here; listed as Homo sapiens) [AS-3, human neuropeptide Y2-receptor mRNA antisense molecule]	28±7.1	23.0±6.7	–	–	efficacy in prevention of tubular structures formation by hTERT-HUVECs (ranking in words) ([1]; FIGS. 4A-4D): best efficacy
5′-CCTCTGCACCTAATGGGCCC -3′ (antisense CCTCTGCACCTAATGGGCCC; DNA, all phosphorothioate, methylation of C not given here; listed as Rattus sp.) [Y2-antisense, NPY Y2 receptor targeted antisense oligodeoxynucleotide corresponding to rat NPY Y2 mRNA]	–	–	regular and continuous	24.58 ± 0.84	mean difference in neovascularization compared to vehicle treatment group ([2]; post hoc Tukey HSD, p<0.001, 95% CI 2.48-8.33): 5.40; mean difference in neovascularization compared to scramble treatment group ([2]; post hoc Tukey HSD, p<0.001, 95% CI 3.76-9.31): 6.53
5′-CCCAGGTTATCCACGTCTCC-3′ (DNA, all phosphorothioate, methylation of C not given here; listed as Homo sapiens) [AS-1 control, control oligonucleotide for AS-1, reference compound]	49.3±8.2	57.0±7.0	–	–	–
